From patent US10988478B1, “Pyrazolo[1,5a]pyrimidine derivatives as IRAK4 modulators” (Genentech, Inc., priority 2015, dated 2021)

biological target: human IRAK4 (Homo sapiens (Human), UniProt Q9NWZ3); assay: IRAK4 kinase inhibition, Transcreener fluorescence polarization ADP assay; assay type: biochemical; settings: recombinant full-length His6-IRAK4; 125 uM ATP; 90 min; Ki computed using ATP Km 642 uM
Protocol: Compounds were assayed for inhibition of human IRAK4 and IRAK1 catalytic activity using recombinant enzyme produced from insect cells. Full-length IRAK4 protein, carrying an N-terminal His6-Tag, was obtained from Life Technologies (Carlsbad, Calif., USA). The IRAK1 construct was produced internally and was comprised of IRAK1 residues Arg194 to Ser712, preceded by an NH2-terminal His6 tag and the coding sequence for glutathione-S-transferase.

Chain of human IRAK4 (Q9NWZ3 whole entry, the tested form may be a part): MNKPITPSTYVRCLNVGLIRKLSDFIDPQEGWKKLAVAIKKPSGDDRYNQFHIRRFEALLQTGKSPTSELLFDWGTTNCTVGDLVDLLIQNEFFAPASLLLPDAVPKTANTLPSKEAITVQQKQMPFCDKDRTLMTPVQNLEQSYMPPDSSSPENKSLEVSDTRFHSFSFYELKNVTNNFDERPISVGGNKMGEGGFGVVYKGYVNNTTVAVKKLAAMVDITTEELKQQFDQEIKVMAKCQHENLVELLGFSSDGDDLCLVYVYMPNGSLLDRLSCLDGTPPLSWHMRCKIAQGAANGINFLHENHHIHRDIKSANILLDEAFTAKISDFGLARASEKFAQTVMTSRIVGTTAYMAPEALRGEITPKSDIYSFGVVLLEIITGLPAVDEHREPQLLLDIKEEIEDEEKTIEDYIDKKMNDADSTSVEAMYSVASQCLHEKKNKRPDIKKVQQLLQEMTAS

Ki [nM]	Compound
5.8	C[C@]1(CC(F)F)Cc2cc(NC(=O)c3cnn4cccnc34)c(N3CCOCC3)cc2O1 [Example 367, N-[(2R)-2-(2,2-difluoroethyl)-2-methyl-6-morpholino-3H-benzofuran-5-yl]pyrazolo[1,5-a]pyrimidine-3-carboxamide]
6.8	O=C(Nc1cc2c(cc1N1CCOCC1)OC1(CCN(CCO)CC1)C2)c1cnn2cccnc12 [Example 369, N-[1′-(2-Hydroxyethyl)-6-morpholino-spiro[3H-benzofuran-2,4′-piperidine]-5-yl]pyrazolo[1,5-a]pyrimidine-3-carboxamide]
5.8	O=C(Nc1cc2c(cc1N1CCOCC1)OC1(CCN(CC(F)F)CC1)C2)c1cnn2cccnc12 [Example 370, N-[1′-(2,2-difluoroethyl)-6-morpholino-spiro[3H-benzofuran-2,4′-piperidine]-5-yl]pyrazolo[1,5-a]pyrimidine-3-carboxamide]
1.4	CN1CCC2(CC1)Cc1cc(NC(=O)c3cnn4cccnc34)c(N3CCC(CO)CC3)cc1O2 [Example 371, N-(6-(4-(Hydroxymethyl)piperidin-1-yl)-1′-methyl-3H-spiro[benzofuran-2,4′-piperidin]-5-yl)pyrazolo[1,5-a]pyrimidine-3-carboxamide]
13	CC(C)N1CCC2(CC1)Cc1cc(NC(=O)c3cnn4cccnc34)c(N3CCOCC3)cc1O2 [Example 372, N-(1′-isopropyl-6-morpholino-spiro[3H-benzofuran-2,4′-piperidine]-5-yl)pyrazolo[1,5-a]pyrimidine-3-carboxamide]
1.7	CN1CCC2(CC1)Cc1cc(NC(=O)c3cnn4cccnc34)c(N3CCN(CC(N)=O)CC3)cc1O2 [Example 373, N-(6-(4-(2-Amino-2-oxoethyl)piperazin-1-yl)-1′-methyl-3H-spiro[benzofuran-2,4′-piperidin]-5-yl)pyrazolo[1,5-a]pyrimidine-3-carboxamide]
2	CC(=O)N1CCC2(CC1)Cc1cc(NC(=O)c3cnn4cccnc34)c(N3CCN(CC(N)=O)CC3)cc1O2 [Example 374, N-(1′-Acetyl-6-(4-(2-amino-2-oxoethyl)piperazin-1-yl)-3H-spiro[benzofuran-2,4′-piperidin]-5-yl)pyrazolo[1,5-a]pyrimidine-3-carboxamide]
47	O=C(CN1CCN(c2cc3c(cc2NC(=O)c2cnn4cccnc24)CC2(CCNCC2)O3)CC1)NC1CC1 [Example 375, N-(6-(4-(2-(Cyclopropylamino)-2-oxoethyl)piperazin-1-yl)-3H-spiro[benzofuran-2,4′-piperidin]-5-yl)pyrazolo[1,5-a]pyrimidine-3-carboxamide]
46	CN1CCC2(CC1)Cc1cc(NC(=O)c3cnn4cccnc34)c(N3CCN(CC(=O)NC4CC4)CC3)cc1O2 [Example 376, N-(6-(4-(2-(Cyclopropylamino)-2-oxoethyl)piperazin-1-yl)-1′-methyl-3H-spiro[benzofuran-2,4′-piperidin]-5-yl)pyrazolo[1,5-a]pyrimidine-3-carboxamide]
11	O=C(Nc1cc2c(cc1OCC(F)F)OC1(CCNCC1)C2)c1cnn2cccnc12 [Example 377, N-(6-(2,2-Difluoroethoxy)-3H-spiro[benzofuran-2,4′-piperidin]-5-yl)pyrazolo[1,5-a]pyrimidine-3-carboxamide]
7.3	CN1CCC2(CC1)Cc1cc(NC(=O)c3cnn4cccnc34)c(OCC(F)F)cc1O2 [Example 378, N-(6-(2,2-difluoroethoxy)-1′-methyl-3H-spiro[benzofuran-2,4′-piperidin]-5-yl)pyrazolo[1,5-a]pyrimidine-3-carboxamide]
5.1	CNc1cnc2c(C(=O)Nc3cc4c(cc3N3CCN(CC(F)F)CC3)OC(C)(C)C4)cnn2c1 [Example 379, N-[6-[4-(2,2-difluoroethyl)piperazin-1-yl]-2,2-dimethyl-3H-benzofuran-5-yl]-6-(methylamino)pyrazolo[1,5-a]pyrimidine-3-carboxamide]
8.1	CNc1cnc2c(C(=O)Nc3cc4c(cc3N3CCOCC3)OC3(CCN(C)CC3)C4)cnn2c1 [Example 380, N-(1′-methyl-6-morpholino-3H-spiro[benzofuran-2,4′-piperidin]-5-yl)-6-(methylamino)pyrazolo[1,5-a]pyrimidine-3-carboxamide]
3	CNc1cnc2c(C(=O)Nc3cc4c(cc3N3CCN(CC(F)F)CC3)O[C@](C)(CO)C4)cnn2c1 [Example 381, (S)-N-(6-(4-(2,2-difluoroethyl)piperazin-1-yl)-2-(hydroxymethyl)-2-methyl-2,3-dihydrobenzofuran-5-yl)-6-(methylamino)pyrazolo[1,5-a]pyrimidine-3-carboxamide]
4	CNc1cnc2c(C(=O)Nc3cc4c(cc3N3CCN(CC(F)F)CC3)O[C@@](C)(CO)C4)cnn2c1 [Example 382, (R)-N-(6-(4-(2,2-difluoroethyl)piperazin-1-yl)-2-(hydroxymethyl)-2-methyl-2,3-dihydrobenzofuran-5-yl)-6-(methylamino)pyrazolo[1,5-a]pyrimidine-3-carboxamide]
7.6	CNc1cnc2c(C(=O)Nc3cc4c(cc3N3CCN(CC(F)F)CC3)OC3(CCOCC3)C4)cnn2c1 [Example 383, N-(6-(4-(2,2-difluoroethyl)piperazin-1-yl)-2′,3′,5′,6′-tetrahydro-3H-spiro[benzofuran-2,4′-pyran]-5-yl)-6-(methylamino)pyrazolo[1,5-a]pyrimidine-3-carboxamide]
37	CC1(C)Cc2cc(NC(=O)c3cnn4cccnc34)c(C3CC3)cc2O1 [Example 384, N-(6-Cyclopropyl-2,2-dimethyl-3H-benzofuran-5-yl)pyrazolo[1,5-a]pyrimidine-3-carboxamide]
19	CN1Cc2cc(NC(=O)c3cnn4cccnc34)c(N3CCOCC3)cc2S1(=O)=O [Example 385, N-(2-methyl-6-morpholino-1,1-dioxo-3H-1,2-benzothiazol-5-yl)pyrazolo[1,5-a]pyrimidine-3-carboxamide]
16	CC1(CC#N)Cc2cc(NC(=O)c3cnn4cccnc34)c(N3CCOCC3)cc2O1 (centres unmarked) [Example 386, N-[2-(Cyanomethyl)-2-methyl-6-morpholino-3H-benzofuran-5-yl]pyrazolo[1,5-a]pyrimidine-3-carboxamide]
12	C[C@]1(CCO)Cc2cc(NC(=O)c3cnn4cccnc34)c(N3CCOCC3)cc2O1 [Example 388, (R)—N-(2-(2-hydroxyethyl)-2-methyl-6-morpholino-2,3-dihydrobenzofuran-5-yl)pyrazolo[1,5-a]pyrimidine-3-carboxamide]
1.3	CC1(C)Cc2cc(NC(=O)c3cnn4cccnc34)c(N3CCC(F)(CN)CC3)cc2O1 [Example 389, N-[6-[4-(Aminomethyl)-4-fluoro-1-piperidyl]-2,2-dimethyl-3H-benzofuran-5-yl]pyrazolo[1,5-a]pyrimidine-3-carboxamide]
16	CN1CC[C@]2(Cc3cc(NC(=O)c4cnn5cccnc45)c(N4CCOCC4)cc3O2)C1 [Example 390, (R)—N-(1′-methyl-6-morpholino-3H-spiro[benzofuran-2,3′-pyrrolidin]-5-yl)pyrazolo[1,5-a]pyrimidine-3-carboxamide]
31	CN1CC[C@@]2(Cc3cc(NC(=O)c4cnn5cccnc45)c(N4CCOCC4)cc3O2)C1 [Example 391, (S)—N-(1′-methyl-6-morpholino-3H-spiro[benzofuran-2,3′-pyrrolidin]-5-yl)pyrazolo[1,5-a]pyrimidine-3-carboxamide]
